System: memory disruption induced by MK-801 in male Long Evans rats
Assay: Novel Object Recognition (NOR) test, memory disruption induced by MK-801
Format: in vivo, rat
Conditions: any dose tested, oral
Procedure: In the present study, a memory saving model was used. MK-801 (Dizocilpine), an uncompetitive antagonist of the NMDA receptor was used to cause deficit of recognition memory. sGC stimulators were evaluated for their efficacy to prevent memory impairment induced by MK-801.
Adult male Long-Evans rats (275-299 gram at arrival from Envigo, Indianapolis, IN) were used in this study. Rats were placed in the experimental rooms and assigned unique identification numbers (tail marks). Rats were housed 2 per cage in polycarbonate cages with filter tops and acclimated for at least 7 days prior to testing. […]
NOR test was conducted in an open-field arena (40×40 cm) placed in a sound-attenuated room under dimmed lighting. […] All training and testing trials were video-taped and scored by an observer blind to treatments.
On Days 1 and 2, rats were allowed to freely explore the arena (no objects inside) for a 5-minute habituation period. […] Each rat was placed in the arena facing the same direction at the same position, and the time spent actively exploring the objects during a 3-minute training period (T1) was recorded. […] Each rat was placed back into the test arena in the presence of one familiar object and one novel object for 5 minutes, and the time spent exploring both objects was recorded. […]

`Oc1nc(-c2cn3ccnc3c(Cc3cc(F)ccc3F)n2)ncc1F` [Compound I-20, 5-fluoro-2-(8-(2,5-difluorobenzyl)imidazo[1,2-a]pyrazin-6-yl)pyrimidin-4-ol] was tested. Which “obvious side effects in NOR study” value did it give?
Its value is “None of the rats in this study showed obvious side effects”.

— US20260151391A1, “TREATMENT OF MITOCHONDRIAL DISEASES WITH sGC STIMULATORS” (Tisento Therapeutics Inc., priority 2022, published 2026)
